In patent publication US11873295B2, “Allosteric chromenone inhibitors of phosphoinositide 3-kinase (PI3K) for the treatment of disease” (Petra Pharma Corporation, priority 2021, dated 2024):

Tests used:
[1] = target: T1, human full length PIK3KA Wild-type (p110α/p85α complex) (Homo sapiens, UniProt P42336); assay: PI3K-alpha kinase (PIK3CA) biochemical activity, wild-type, ADP-Glo; conditions: PI3K-α (PIK3CA) biochemical, Soy PI lipid substrate
T1 construct: Recombinant, catalytically active human full length PIK3KA Wild-type and H1047R mutant were purchased as 1:1 complex; 6xHis (N); purchased EMD Millipore Sigma 14-602M
Method in brief: (§1)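 Full-length His-p110α/p85α complex, wild-type or H1047R, 1–5 nM, preincubated with compound 1 h at 27 °C in HEPES pH 7.4, 25 mM MgCl2, 0.01% Triton X-100, 1% DMSO. Reaction with 20 μM ATP and 50 μM PIP2diC8 or soy PI at 27 °C to ~10% ATP conversion; ADP-Glo luminescence. IC50 from 10-point four-parameter logistic fit.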

[2] = target: T2, human full length PIK3KA H1047R mutant (p110α/p85α complex) (Homo sapiens, UniProt P42336, H1047R); assay: PI3K-alpha kinase (PIK3CA) biochemical activity, H1047R mutant, ADP-Glo; conditions: PI3K-α (PIK3CA) biochemical, H1047R mutant, Soy PI lipid substrate
T2 construct: Recombinant, catalytically active human full length PIK3KA Wild-type and H1047R mutant were purchased as 1:1 complex; 6xHis (N); purchased EMD Millipore Sigma 14-792M
T2 sequence (P42336 whole entry H1047R): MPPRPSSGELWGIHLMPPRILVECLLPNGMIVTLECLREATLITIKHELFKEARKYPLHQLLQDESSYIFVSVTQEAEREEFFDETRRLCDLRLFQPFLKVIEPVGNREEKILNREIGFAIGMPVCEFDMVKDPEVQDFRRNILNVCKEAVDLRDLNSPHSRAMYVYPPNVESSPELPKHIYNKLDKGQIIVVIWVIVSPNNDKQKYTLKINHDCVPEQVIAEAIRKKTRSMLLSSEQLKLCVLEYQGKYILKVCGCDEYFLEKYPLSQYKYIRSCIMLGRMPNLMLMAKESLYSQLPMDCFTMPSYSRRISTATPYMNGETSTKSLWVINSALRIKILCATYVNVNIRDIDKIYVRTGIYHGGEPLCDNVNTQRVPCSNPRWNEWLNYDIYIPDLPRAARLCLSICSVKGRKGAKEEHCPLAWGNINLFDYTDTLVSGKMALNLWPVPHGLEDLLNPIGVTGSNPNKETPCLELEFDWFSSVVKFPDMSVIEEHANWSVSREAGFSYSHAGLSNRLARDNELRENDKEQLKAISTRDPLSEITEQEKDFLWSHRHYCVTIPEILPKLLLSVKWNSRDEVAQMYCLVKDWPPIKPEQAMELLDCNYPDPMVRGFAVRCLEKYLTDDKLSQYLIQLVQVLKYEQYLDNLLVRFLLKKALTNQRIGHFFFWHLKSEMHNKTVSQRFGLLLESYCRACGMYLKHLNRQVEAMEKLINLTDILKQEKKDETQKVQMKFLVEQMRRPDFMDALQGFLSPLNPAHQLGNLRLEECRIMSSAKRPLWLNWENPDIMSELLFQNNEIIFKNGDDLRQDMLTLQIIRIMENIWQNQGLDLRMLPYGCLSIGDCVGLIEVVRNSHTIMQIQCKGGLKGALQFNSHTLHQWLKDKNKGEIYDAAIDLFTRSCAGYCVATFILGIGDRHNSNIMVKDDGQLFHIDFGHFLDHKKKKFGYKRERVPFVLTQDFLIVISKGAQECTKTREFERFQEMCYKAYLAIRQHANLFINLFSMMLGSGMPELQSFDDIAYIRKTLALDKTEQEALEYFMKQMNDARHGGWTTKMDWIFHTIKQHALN
T2 sequence (P27986 whole entry partner): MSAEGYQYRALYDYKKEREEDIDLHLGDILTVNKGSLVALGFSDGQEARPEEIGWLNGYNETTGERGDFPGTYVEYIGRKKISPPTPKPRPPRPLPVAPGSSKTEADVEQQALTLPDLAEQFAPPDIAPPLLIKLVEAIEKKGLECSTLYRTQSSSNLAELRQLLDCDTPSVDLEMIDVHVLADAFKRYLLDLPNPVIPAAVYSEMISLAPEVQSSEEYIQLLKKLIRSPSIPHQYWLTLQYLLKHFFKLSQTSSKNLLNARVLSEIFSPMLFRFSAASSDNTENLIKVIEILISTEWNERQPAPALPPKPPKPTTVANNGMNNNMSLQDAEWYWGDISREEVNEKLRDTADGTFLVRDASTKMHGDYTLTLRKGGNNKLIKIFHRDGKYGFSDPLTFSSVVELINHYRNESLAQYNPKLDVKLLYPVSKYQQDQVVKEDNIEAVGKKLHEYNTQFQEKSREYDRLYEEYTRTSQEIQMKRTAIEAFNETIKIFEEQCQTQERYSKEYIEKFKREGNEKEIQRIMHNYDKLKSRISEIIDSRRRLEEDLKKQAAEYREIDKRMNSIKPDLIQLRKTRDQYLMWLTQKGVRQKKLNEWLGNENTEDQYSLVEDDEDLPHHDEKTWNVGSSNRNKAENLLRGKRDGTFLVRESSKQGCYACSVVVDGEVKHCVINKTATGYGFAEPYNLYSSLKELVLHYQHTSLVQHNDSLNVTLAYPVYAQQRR
Method in brief: as §1

[3] = system: PI3K-α (PIK3CA) in MDA-MB-453 cells; assay: PI3K-alpha kinase (PIK3CA) activity in vitro cell based assay, MDA-MB-453 cells, AlphaLisa SureFire; conditions: Homo sapiens, MDA-MB-453, 3 h, 0% FBS, 3 hours treatment, relative IC50
Method in brief: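 MDA-MB-453 cells in serum-free MEM with 1 μg/mL insulin treated 3 h with 10-point 1:3 compound dilutions, 0.3% DMSO. Lysates read by AlphaLisa SureFire; percent inhibition relative to DMSO (max) and 1 μM GDC-0032 (min), duplicate means fitted to 4-parameter logistic for relative IC50.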

| Compound | IC50 [1] [nM] | IC50 [2] [nM] | IC50 [3] [nM] |
| --- | --- | --- | --- |
| Cc1cc([C@@H](C)Nc2ccc(C)nc2C(=O)O)c2oc(-c3ccccc3F)c(C)c(=O)c2c1 [Example 148, 3-[[(1R)-1-[2-(2-Fluorophenyl)-3,6-dimethyl-4-oxo-chromen-8-yl]ethyl]amino]-6-methyl-pyridine-2-carboxylic acid] | 5000 to 10000 | 500 to 1000 | < 50 |
| COC(=O)c1ccc(-c2oc3c([C@@H](C)Nc4ccccc4C(=O)O)cc(C)cc3c(=O)c2C)cc1 [Example 149, 2-[[(1R)-1-[2-(4-Methoxycarbonylphenyl)-3,6-dimethyl-4-oxo-chromen-8-yl]ethyl]amino]benzoic acid] | 1000 to 5000 | < 500 | < 50 |
| COC(=O)c1cccc(-c2oc3c([C@@H](C)Nc4ccccc4C(=O)O)cc(C)cc3c(=O)c2C)c1 [Example 150, 2-[[(1R)-1-[2-(3-Methoxycarbonylphenyl)-3,6-dimethyl-4-oxo-chromen-8-yl]ethyl]amino]benzoic acid] | 1000 to 5000 | < 500 | < 50 |
| CNC(=O)c1ccc(-c2oc3c([C@@H](C)Nc4ccccc4C(=O)O)cc(C)cc3c(=O)c2C)cc1 [Example 151, 2-[[(1R)-1-[3,6-Dimethyl-2-[4-(methylcarbamoyl)phenyl]-4-oxo-chromen-8-yl]ethyl]amino]benzoic acid] | 1000 to 5000 | < 500 | < 50 |
| CNC(=O)c1cccc(-c2oc3c([C@@H](C)Nc4ccccc4C(=O)O)cc(C)cc3c(=O)c2C)c1 [Example 152, 2-[[(1R)-1-[3,6-Dimethyl-2-[3-(methylcarbamoyl)phenyl]-4-oxo-chromen-8-yl]ethyl]amino]benzoic acid] | > 10000 | < 500 | < 50 |
| COc1ncc(N[C@H](C)c2cc(C)cc3c(=O)c(C)c(-c4ccccc4)oc23)c(C(=O)O)n1 [Example 155, 2-Methoxy-5-[[(1R)-1-(3,6-dimethyl-4-oxo-2-phenyl-chromen-8-yl)ethyl]amino]pyrimidine-4-carboxylic acid 2,2,2-trifluoroacetic acid] | 1000 to 5000 | < 500 | 100 to 500 |
| Cc1cc([C@@H](C)Nc2ccccc2C(=O)O)c2oc(-c3ccccc3)c(-c3cccnc3)c(=O)c2c1 [Example 156, 2-[[(1R)-1-[6-Methyl-4-oxo-2-phenyl-3-(3-pyridyl)chromen-8-yl]ethyl]amino]benzoic acid 2,2,2-trifluoroacetic acid] | 1000 to 5000 | 500 to 1000 | 100 to 500 |
| Cc1cc([C@@H](C)Nc2ccccc2C(=O)O)c2oc(-c3ccc(-c4c[nH]nc4C)cc3)c(C)c(=O)c2c1 [Example 161, 2-[[(1R)-1-[3,6-Dimethyl-2-[4-(3-methyl-1H-pyrazol-4-yl)phenyl]-4-oxo-chromen-8-yl]ethyl]amino]benzoic acid] | 500 to 1000 | < 500 | < 50 |
| Cc1cc([C@@H](C)Nc2ccccc2C(=O)O)c2oc(-c3ccc(-c4cn[nH]c4)cc3)c(C)c(=O)c2c1 [Example 162, 2-[[(1R)-1-[3,6-Dimethyl-4-oxo-2-[4-(1H-pyrazol-4-yl)phenyl]chromen-8-yl]ethyl]amino]benzoic acid] | 500 to 1000 | < 500 | < 50 |
| Cc1cc([C@@H](C)Nc2ccccc2C(=O)O)c2oc(-c3ccc(-c4cn[nH]c4)cc3)cc(=O)c2c1 [Example 163, 2-[[(1R)-1-[6-Methyl-4-oxo-2-[4-(1H-pyrazol-4-yl)phenyl]chromen-8-yl]ethyl]amino]benzoic acid] | 1000 to 5000 | 500 to 1000 | 50 to 100 |
| Cc1cc([C@@H](C)Nc2ccccc2C(=O)O)c2oc(-c3ccc(-c4cnn(C)c4)cc3)c(C)c(=O)c2c1 [Example 164, 2-[[(1R)-1-[3,6-Dimethyl-2-[4-(1-methylpyrazol-4-yl)phenyl]-4-oxo-chromen-8-yl]ethyl]amino]benzoic acid] | < 500 | < 500 | < 50 |
| Cc1cc([C@@H](C)Nc2ccccc2C(=O)O)c2oc(-c3ccc(-c4c(C)n[nH]c4C)cc3)c(C)c(=O)c2c1 [Example 165, 2-[[(1R)-1-[2-[4-(3,5-Dimethyl-1H-pyrazol-4-yl)phenyl]-3,6-dimethyl-4-oxo-chromen-8-yl]ethyl]amino]benzoic acid] | 1000 to 5000 | < 500 | < 50 |
| Cc1cc([C@@H](C)Nc2ccccc2C(=O)O)c2oc(-c3cccc(-c4cc[nH]n4)c3)c(C)c(=O)c2c1 [Example 166, 2-[[(1R)-1-[3,6-Dimethyl-4-oxo-2-[3-(1H-pyrazol-3-yl)phenyl]chromen-8-yl]ethyl]amino]benzoic acid] | 1000 to 5000 | 500 to 1000 | < 50 |
| Cc1cc([C@@H](C)Nc2ccccc2C(=O)O)c2oc(-c3cccc(-c4cn[nH]c4)c3)c(C)c(=O)c2c1 [Example 167, 2-[[(1R)-1-[3,6-Dimethyl-4-oxo-2-[3-(1H-pyrazol-4-yl)phenyl]chromen-8-yl]ethyl]amino]benzoic acid] | 500 to 1000 | < 500 | < 50 |
| Cc1cc([C@@H](C)Nc2ccccc2C(=O)O)c2oc(-c3ccc(-c4ccn[nH]4)cc3)c(C)c(=O)c2c1 [Example 168, 2-[[(1R)-1-[3,6-Dimethyl-4-oxo-2-[4-(1H-pyrazol-5-yl)phenyl]chromen-8-yl]ethyl]amino]benzoic acid] | 500 to 1000 | < 500 | < 50 |
| Cc1cc([C@@H](C)Nc2ccccc2C(=O)O)c2oc(-c3ccccc3)c(NCCC(=O)O)c(=O)c2c1 [Example 171, 2-[[(1R)-1-[3-(2-Carboxyethylamino)-6-methyl-4-oxo-2-phenyl-chromen-8-yl]ethyl]amino]benzoic acid 2,2,2-trifluoroacetic acid] | > 10000 | 500 to 1000 | > 500 |
